One data set concerns the target Nischarin (Rattus norvegicus, UniProt Q4G017). Briefly: Displacement of [125I]paraiodoclonidine from imidazoline I1 receptor in rat PC12 cells after 30 mins by gamma counter. A general note: Displacement assays read how much labelled ligand stays bound in the presence of the test substance.
In data set [1] the target is T1, Alpha-2B adrenergic receptor (Homo sapiens, UniProt P18089).
T1 sequence (P18089 whole entry): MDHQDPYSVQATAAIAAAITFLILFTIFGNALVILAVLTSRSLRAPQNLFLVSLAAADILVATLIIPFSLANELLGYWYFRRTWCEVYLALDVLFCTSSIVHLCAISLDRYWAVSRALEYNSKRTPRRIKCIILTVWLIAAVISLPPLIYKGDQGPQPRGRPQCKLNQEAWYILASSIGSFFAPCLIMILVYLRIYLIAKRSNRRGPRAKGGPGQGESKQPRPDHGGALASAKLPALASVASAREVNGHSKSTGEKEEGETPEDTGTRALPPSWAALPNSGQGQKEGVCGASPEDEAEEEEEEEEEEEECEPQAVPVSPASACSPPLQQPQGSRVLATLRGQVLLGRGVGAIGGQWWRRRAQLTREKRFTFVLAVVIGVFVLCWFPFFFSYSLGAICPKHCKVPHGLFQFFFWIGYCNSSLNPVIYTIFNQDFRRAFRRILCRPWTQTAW
The experiment in a line: Displacement of [3H]RX821001 from human alpha2B adrenoceptor expressed in CHO cells after 60 mins by gamma counter. It is filed as cell-based.

Data set [2] deals with T2, Alpha-2A adrenergic receptor (Homo sapiens, UniProt P08913).
T2 sequence (P08913 whole entry): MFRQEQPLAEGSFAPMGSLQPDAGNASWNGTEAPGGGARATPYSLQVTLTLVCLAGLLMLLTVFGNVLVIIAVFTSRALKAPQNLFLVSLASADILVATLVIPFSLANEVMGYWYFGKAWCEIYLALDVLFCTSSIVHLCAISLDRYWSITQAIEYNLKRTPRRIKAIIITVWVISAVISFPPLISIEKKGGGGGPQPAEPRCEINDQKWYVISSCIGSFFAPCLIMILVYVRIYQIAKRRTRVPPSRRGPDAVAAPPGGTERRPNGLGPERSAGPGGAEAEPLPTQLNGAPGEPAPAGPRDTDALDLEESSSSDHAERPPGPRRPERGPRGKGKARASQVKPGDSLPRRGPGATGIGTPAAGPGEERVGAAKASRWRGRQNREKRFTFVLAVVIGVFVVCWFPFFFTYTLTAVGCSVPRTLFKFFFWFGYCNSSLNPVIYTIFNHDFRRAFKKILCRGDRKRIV
Briefly: Displacement of [3H]RX821001 from human alpha2A adrenoceptor expressed in CHO cells after 60 mins […]. Type of data set: cell-based.

In data set [3] the target is T3, Alpha-2C adrenergic receptor (Homo sapiens, UniProt P18825).
T3 sequence (P18825 whole entry): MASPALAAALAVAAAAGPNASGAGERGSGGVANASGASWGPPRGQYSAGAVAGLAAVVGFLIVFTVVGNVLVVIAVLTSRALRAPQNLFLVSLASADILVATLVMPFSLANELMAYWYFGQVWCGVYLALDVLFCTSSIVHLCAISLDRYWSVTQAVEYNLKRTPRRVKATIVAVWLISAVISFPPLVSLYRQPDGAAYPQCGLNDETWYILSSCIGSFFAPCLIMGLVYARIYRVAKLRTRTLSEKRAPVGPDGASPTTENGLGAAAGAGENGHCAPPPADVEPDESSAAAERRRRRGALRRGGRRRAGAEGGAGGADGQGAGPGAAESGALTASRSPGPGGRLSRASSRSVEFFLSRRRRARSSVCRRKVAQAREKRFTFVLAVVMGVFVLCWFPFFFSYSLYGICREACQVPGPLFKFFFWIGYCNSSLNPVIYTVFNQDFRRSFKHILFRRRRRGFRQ
Briefly: Displacement of [3H]RX821001 from human alpha2C adrenoceptor expressed in CHO cells after 60 mins […]. It is filed as cell-based.

Data set [4] deals with PC-12. Briefly: Selectivity ratio of pKi for imidazoline I2 receptor in New Zealand rabbit renal cortex to pKi for imidazoline I1 receptor in rat PC12 cell. Type of data set: cell-based.
Data set [5] relates to PC-12. Briefly: Selectivity ratio of pKi for human alpha2A adrenoceptor to pKi for imidazoline I1 receptor in rat PC12 cell. It is filed as cell-based.
Data set [6] deals with PC-12. The experiment in a line: Selectivity ratio of pKi for human alpha2B adrenoceptor to pKi for imidazoline I1 receptor in rat PC12 cell. Type of data set: cell-based.
The subject of data set [7] is PC-12. Briefly: Selectivity ratio of pKi for human alpha2C adrenoceptor to pKi for imidazoline I1 receptor in rat PC12 cell. It is filed as cell-based.
Data set [8] can be described thus: Displacement of [3H]idazoxan from imidazoline I2 receptor in New Zealand rabbit renal cortex homogenate after 60 mins […]. Further details: species or system Oryctolagus cuniculus.
For data set [9], the system named is Rattus norvegicus. Briefly: Hypotensive activity in spontaneous hypertensive rat assessed as decrease in mean blood pressure at 10 mg/kg, iv measured continuously during 30 mins. Also on record: dose 10 mg/kg. It is filed as functional, organism-based.
The subject of data set [10] is Rattus norvegicus. The experiment in a line: Toxicity in spontaneous hypertensive rat assessed as vasoconstrictive activity at 1 mg/kg, iv. Type of data set: organism-based. The settings on record: in vivo. Further details: dose 1 mg/kg, route intravenous.
Data set [11] deals with T4, Alpha-2A adrenergic receptor (Homo sapiens) (UniProt P08913).
T4 sequence (whole entry): T2 sequence (P08913 whole entry)
The experiment in a line: Selectivity ratio of compound to rilmenidine for human alpha2A adrenoceptor expressed in CHO cells after 60 mins […]. Type of data set: cell-based.

The target in data set [12] is T5, Alpha-2B adrenergic receptor (Homo sapiens) (UniProt P18089).
T5 sequence (whole entry): T1 sequence (P18089 whole entry)
The experiment in a line: Selectivity ratio of compound to rilmenidine for human alpha2B adrenoceptor expressed in CHO cells after 60 mins […]. Type of data set: cell-based.

The target in data set [13] is T6, Alpha-2C adrenergic receptor (Homo sapiens) (UniProt P18825).
T6 sequence (whole entry): T3 sequence (P18825 whole entry)
The experiment in a line: Selectivity ratio of compound to rilmenidine for human alpha2C adrenoceptor expressed in CHO cells after 60 mins […]. Type of data set: cell-based.

In data set [14] the test system is Rattus norvegicus. Briefly: Hypotensive activity in spontaneous hypertensive rat assessed as decrease in mean blood pressure at 1 mg/kg, iv measured after 5 mins relative to control. Type of data set: functional. Also on record: scale not given: the % may be the effect or the level left.

Activity calls are given as the source filed them. The rule behind the calls is not given here.

Chain of Nischarin (Q4G017 whole entry): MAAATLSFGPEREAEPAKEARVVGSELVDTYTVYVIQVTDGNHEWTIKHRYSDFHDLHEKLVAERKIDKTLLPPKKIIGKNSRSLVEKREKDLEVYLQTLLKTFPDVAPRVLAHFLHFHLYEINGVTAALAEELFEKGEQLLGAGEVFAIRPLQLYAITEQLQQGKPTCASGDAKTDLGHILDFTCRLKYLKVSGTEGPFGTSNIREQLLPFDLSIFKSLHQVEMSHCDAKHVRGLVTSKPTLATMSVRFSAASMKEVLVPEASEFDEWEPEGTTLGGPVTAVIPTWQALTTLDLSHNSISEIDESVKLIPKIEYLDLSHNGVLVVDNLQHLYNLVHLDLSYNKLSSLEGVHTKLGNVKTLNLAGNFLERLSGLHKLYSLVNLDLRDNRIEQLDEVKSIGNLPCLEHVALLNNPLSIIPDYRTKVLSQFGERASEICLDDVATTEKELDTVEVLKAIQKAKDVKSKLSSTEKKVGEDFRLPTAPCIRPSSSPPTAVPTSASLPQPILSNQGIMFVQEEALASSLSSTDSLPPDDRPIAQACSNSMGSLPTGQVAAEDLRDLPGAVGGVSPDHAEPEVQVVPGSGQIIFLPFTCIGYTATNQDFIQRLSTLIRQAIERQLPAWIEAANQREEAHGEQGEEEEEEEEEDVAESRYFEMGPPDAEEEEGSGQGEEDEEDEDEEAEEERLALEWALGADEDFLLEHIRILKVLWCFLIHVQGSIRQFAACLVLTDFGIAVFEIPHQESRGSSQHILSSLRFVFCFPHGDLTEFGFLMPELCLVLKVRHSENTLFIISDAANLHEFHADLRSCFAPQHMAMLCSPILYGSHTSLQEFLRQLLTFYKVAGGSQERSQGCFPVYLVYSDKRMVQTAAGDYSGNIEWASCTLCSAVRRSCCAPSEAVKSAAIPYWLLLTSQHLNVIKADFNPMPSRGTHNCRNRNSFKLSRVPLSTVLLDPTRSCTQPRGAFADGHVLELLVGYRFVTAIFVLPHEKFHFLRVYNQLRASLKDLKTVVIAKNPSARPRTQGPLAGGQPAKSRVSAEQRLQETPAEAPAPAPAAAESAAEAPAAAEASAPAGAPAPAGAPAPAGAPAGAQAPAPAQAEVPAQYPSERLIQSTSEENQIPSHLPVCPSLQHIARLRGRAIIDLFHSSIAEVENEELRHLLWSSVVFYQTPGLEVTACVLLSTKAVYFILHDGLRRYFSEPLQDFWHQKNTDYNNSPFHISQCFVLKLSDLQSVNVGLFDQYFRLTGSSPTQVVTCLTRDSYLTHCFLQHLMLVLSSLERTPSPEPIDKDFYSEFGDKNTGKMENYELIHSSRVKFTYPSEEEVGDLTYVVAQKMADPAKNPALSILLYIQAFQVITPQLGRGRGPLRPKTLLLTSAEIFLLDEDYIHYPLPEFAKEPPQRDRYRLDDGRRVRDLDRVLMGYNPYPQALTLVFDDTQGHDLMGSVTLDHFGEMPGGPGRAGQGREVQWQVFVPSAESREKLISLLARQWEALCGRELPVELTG

For orientation: Ki means a measure of affinity in units of concentration, obtained from inhibition or displacement. On to `CC1CCC(=Nc2ccc(I)cc2Cl)N1` (centres undefined), for which the Ki was 0.219 nM on Nischarin, 4170 nM in [1], 2570 nM in data set [2] and greater than 10000 nM in [3].
In general, pKi refers to the Ki on a negative log10 scale, so that one unit is a factor of ten. For `CC1CCC(Nc2ccc(I)cc2Cl)=N1` (centres undefined), the Ratio pKi is greater than 45700 with PC-12 [4], 11700 in the data set with PC-12 [5], 19100 in the data set on PC-12 [6] and greater than 45700 in the data set on PC-12 [7]. This compound gave a pKi in data set [8] of less than 5.
On to `CC1COC(NC(C2CC2)C2CC2)=N1` (centres undefined), for which, in the data set with Rattus norvegicus [9], the outcome was inactive. Moreover, the Activity entry in the data set on Rattus norvegicus [10] was “Non-toxic”. Moreover, the inhibition constant (Ki) at Nischarin was 363 nM; in data set [1] it was 2820 nM; in data set [2], 4900 nM; in data set [3], greater than 10000 nM. Also, the results for the Ratio in data set [11], in data set [12] and in data set [13] were 135, 66 and greater than 794, respectively. The negative logarithm of the Ki (pKi) in data set [8] is less than 5.
With `Clc1cccc(Cl)c1NC1=NCCN1` [CLONIDINE], at Nischarin, the affinity corresponds to a Ki of 282 nM. For the same compound, in [8], the pKi was less than 5.
On to `CC1CCC(Nc2ccccc2Cl)=N1` (centres undefined), for which the outcome in the data set on Rattus norvegicus [9] was inactive. Further, the Activity result in the data set on Rattus norvegicus [10] was “Non-toxic”. Besides, the inhibition constant Ki on Nischarin was 132 nM; in data set [1], greater than 10000 nM; in [2], greater than 10000 nM; in data set [3], greater than 10000 nM. In [8], this compound displayed a pKi of less than 5.
In the case of `CC1CNC(Nc2c(Cl)cccc2Cl)=N1` (centres undefined), the Activity entry with Rattus norvegicus [10] was “Non-toxic”; with Rattus norvegicus [14] it was 45%. Also, the inhibition constant Ki at Nischarin is 0.933 nM; in [1], 1320 nM; in data set [2], 1950 nM; in [3], 5750 nM. Further, the pKi in data set [8] is recorded as less than 5.
Turning to `C1COC(NC(C2CC2)C2CC2)=N1` [RILMENIDINE], the inhibition constant Ki is 42.7 nM in data set [1], 36.3 nM in data set [2] and 12.6 nM in data set [3]. The negative logarithm of the Ki (pKi) in [8] was less than 5.
Consider `Clc1ccccc1NC1=NCCC1`, for which the inhibition constant Ki at Nischarin is 77.6 nM; in data set [1], 933 nM; in data set [2] it was 3020 nM; in [3], 5010 nM. For the same compound, the pKi in [8] is 6.1.

The values are drawn from ChEMBL document CHEMBL2057159, “Methylation of imidazoline related compounds leads to loss of α₂-adrenoceptor affinity. Synthesis and biological evaluation of selective I₁ imidazoline receptor ligands” (Bioorg Med Chem, 2012).
